# Measured values: the METLIN SMRT retention time set (Domingo-Almenara et al. 2019)
# Assay: gradient 5% acetonitrile 3 min, to 50% in 2 min, to 85% in 15 min, held 3 min, 100 µL/min
# Conditions: column: Zorbax Extend-C18 2.1 x 50 mm; eluents: water / acetonitrile, 0.1% formic acid
# Summary of the method: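 Standards, all pure, were combined into mixtures of ~100 molecules and run at 100 μL/min on a Zorbax Extend-C18 column (2.1 × 50 mm, 1.8 μm) with water and acetonitrile, each containing 0.1% formic acid. A coupled quadrupole time-of-flight mass spectrometer operated in positive and negative ionization mode. Retention time values come from computationally picked adduct peaks, each inspected manually.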
row,RP-LC retention time [s],Compound
1,938,CC(=O)c1cccc(NC(=O)N2C[C@H](c3nc(-c4ccccc4)no3)[C@@H](C)C2)c1
2,657,CC(=O)Nc1ccc2c(c1)CN(C(=O)c1ccccc1Cl)C(C(=O)N1CCCC1)C2 (stereo not given)
3,751,COCCC(=O)Nc1c(-c2ccccc2)nc2sc(N3CCCCC3)nn12
4,1060,CCc1ccc(C(C)NS(=O)(=O)c2c(C)c(-c3nnc(C4CCC4)o3)n(C)c2C)cc1 (stereo not given)
5,735,O=C(C1=CN(c2ccc3c(c2)OCCO3)c2cc(F)ccc2S1(=O)=O)N1CCCC1
6,656,COc1ccccc1NC(=O)Cn1cnc2nc(N3CCC(C(=O)NC4CC4)CC3)sc2c1=O
7,662,CC1(O)CCOC2(CCN(C(=O)C3CCCC3)CC2)C1 (stereo not given)
8,575,Cc1c(CCC(=O)N[C@H](CCS(C)=O)C(=O)O)c(=O)oc2cc(O)ccc12 (stereo not given in full)
9,702,CCC(=O)Nc1ccc(CCc2nc3ccc(C(=O)NC(c4cccs4)C(C)C)cc3[nH]2)cc1 (stereo not given)
10,892,Cc1ccc(C)c(S(=O)(=O)N2CC[C@H](n3c(=O)n(C)c4cccnc43)C2)c1
11,1030,CCOc1ccc(NC(=O)Cn2c(=O)cc(-c3nc(C(C)C)no3)c3ccccc32)cc1
12,677,CC(=O)N1CCc2cc(N3CC(C(=O)Nc4ccccc4)CC3=O)ccc21 (stereo not given)
13,840,CCc1noc(NC(C)=O)c1-c1ccc(C)c(S(=O)(=O)Nc2ccc(OC)c(OC)c2)c1
14,604,O=C(CC1CCCC1)N1CCC(N(Cc2cccnc2)C2CCOCC2)CC1
15,577,O=C(CSc1nc2ccccc2[nH]1)Nc1nc2ccccc2s1
16,762,CC(=O)c1ccc(NC(=O)CN2C(=O)NC3(CCC(C)CC3)C2=O)cc1 (stereo not given)
17,680,Cc1nc(C)c(C(=O)N2CCCCCCNC(=O)[C@@H]3CCC[C@@H]32)s1
18,924,CC(=O)Nc1ccc(-c2noc(C3CCN(C(=O)CCC4CCCC4)CC3)n2)cc1
19,568,CCOc1cc(=O)n2c(c1C(=O)NCCCN1CCCCC1)CCCCC2
20,750,CN1c2ccc(F)cc2C(=O)NC12CCN(C(=O)NCc1ccc(F)cc1)CC2
21,946,O=C(CC1CCN(S(=O)(=O)c2ccc(Cl)s2)CC1)N1CCCCC1
22,754,Cc1nnc(-c2cc(C)n(CC(=O)Nc3ccc(F)cc3)c2C)o1
23,958,CCOc1ccccc1NC(=O)N1CCCC(C)(C(=O)NCc2cccc(OC)c2)C1 (stereo not given)
24,889,CCCn1cc(CCNC(=O)Nc2cccc(Cl)c2C)c2cccnc21
25,621,Cc1cc(C)n(CCC(=O)NCC23CCCC=C2NC(=O)CC3)n1 (stereo not given)
26,649,O=C(Nc1ccc(N2CCOCC2)cc1)C1CCCN(c2ccnc(-c3cccc(F)c3)n2)C1 (stereo not given)
27,692,O=C(Nc1ccc(NC(=O)N2CCCC(C(=O)NCC3CC3)C2)cc1)NC1CCCC1 (stereo not given)
28,711,CCc1cccc(NC(=O)Cn2nc3cc(C)nc(Nc4ccccc4C)n3c2=O)c1

# More lines, now with the values behind:
row,Compound,RP-LC retention time [s]
1,CN(CCc1noc(COc2ccccc2)n1)C(=O)Nc1ccc(F)cc1,876
2,CN(Cc1ccccc1)C(=O)Cn1c(=O)c2cnc(-c3ccccc3)nc2n(C)c1=O,1020
3,CC(NC(=O)C1CCN(S(=O)(=O)c2ccc(Cl)cc2)CC1)C(=O)N1CCCc2ccccc21 (stereo not given),945
4,CC(=O)N1CCCn2nc(-c3cccc(F)c3)cc2C1,722
5,Cc1cc(C)cc(NC(=O)Cn2c(-c3cnccn3)nc(C)c(C)c2=O)c1,774
6,COC(=O)c1[nH]c(C)c(CN(C)C(=O)c2ccc(Br)cc2)c1C,876
7,COc1cccc(NC(=O)Cn2c3ccccc3n3c(=O)cc(-c4ccc(F)cc4)nc23)c1,961
8,O=C1NC2(CCN(C(=O)c3ccccc3)CC2)Nc2cc(Cl)ccc21,729
9,O=C(NCc1csc(-c2cccs2)n1)C1CCN(C(=O)COc2ccccc2)CC1,770
10,CCC1CN(C(=O)Nc2cccc(OC)c2)c2ccccc2O1 (stereo not given),945
11,CCOc1ccc(CNC(=O)Cc2csc3nc(-c4ccc(C)c(C)c4)cn23)cc1OC,810
12,O=C(Cc1cccn1-c1ccc(Cl)cc1)NC1CCCC1,945
13,CC(C)CC(=O)Nc1ccc(-n2cnc(C(=O)N3CC(C)CC(C)C3)c2)nc1 (stereo not given),839
14,C[C@@H]1OC(Oc2ccccc2-c2cc(=O)c3c(O)cc(O)c([C@@H]4O[C@H](CO)[C@@H](O)[C@H](O)[C@H]4O)c3o2)[C@H](O)[C@H](O)[C@H]1O (stereo not given in full),622
15,CCn1cc(CN2CCC(C(=O)NC3CCCc4ccccc43)CC2)c2cc(OC)ccc21 (stereo not given),760
16,Cc1ccc2c(c1)N(S(C)(=O)=O)CCC(C(=O)Nc1c(C)cccc1C)O2 (stereo not given),930
17,COc1ccc(OC)c(NC(=O)N(C)Cc2nc3cc(C(=O)N(C)C)ccc3n2C)c1,605
18,O=C(NC1CCCCC1)c1ccc2ccnc(N3CCN(c4ccccc4F)CC3)c2c1,908
19,COc1ccc(C2CCCN2C(=O)c2c(C)noc2C)cc1 (stereo not given),746

row,Compound,RP-LC retention time [s]
1,O=C(Nc1ccc(N2CCOCC2)cc1)c1cn2c(n1)CSCC2,600
2,CCS(=O)(=O)N1CCOc2ccc(CCC(=O)NC3CC3)cc2C1,675
3,Cc1ccc(CC(=O)Nc2cc(-c3cccs3)no2)cc1,993
4,CCc1nc(-c2ccc(-c3noc(COc4ccc(F)cc4)n3)cc2)cs1,1310
5,CCCS(=O)(=O)c1nc2ccc(NS(=O)(=O)c3cc(OC)ccc3OC)cc2s1,909
6,Cc1ccc(NC(=O)CN2C(=O)CCCc3cc(S(=O)(=O)N4CCCC4)ccc32)cc1C,824
7,Cc1ccc(C(=O)CC2(O)C(=O)Nc3ccccc32)cc1 (stereo not given),704
8,Cc1ccc2c(Nc3ccc(C)c(Cl)c3)c(C(=O)N3CCOCC3)cnc2n1,610
9,CC1=C(c2ccccc2)S(=O)(=O)N=C1N1CCCN(C(=O)CC(C)C)CC1,803
10,Cc1cc2c(cc1C)[n+](=O)c(C(=O)/C=C/c1ccccc1[N+](=O)[O-])c(C)n2[O-],806
11,COc1ccc(CCNC(=O)C2CCCN(c3ncnc4c3nc3n4CCCCC3)C2)c(OC)c1 (stereo not given),778
12,CC1(C(=O)NC2CCCCCCC2)CN(S(C)(=O)=O)CC(=O)N1Cc1ccc(F)cc1 (stereo not given),740
13,CC(C)n1cnnc1CC1CN(C(=O)Nc2cc(F)cc(F)c2)C1,667
14,COc1cc(NC(=O)C2CN(S(=O)(=O)C3CC3)CC23CCCCC3)cc(OC)c1 (stereo not given),955
15,Cn1ccc2cc(S(=O)(=O)N3CCC(C(=O)N4CCN(Cc5ccccc5)CC4)CC3)ccc21,671
16,CCn1cnc(S(=O)(=O)N2CCC(C(=O)Nc3cc(OC)cc(OC)c3)CC2)c1,704
17,Cc1nnc(C2CCCCCN2C(=O)c2cn[nH]c2)o1 (stereo not given),597
18,COc1ccc(-c2nnc(Cc3nc(-c4cccc(Cl)c4)no3)o2)cc1,1020
